The source of these data is patent publication US12018011B2, “Macrocyclic compounds and compositions, and methods of preparing and using the same” (Kura Oncology, Inc., priority 2021, dated 2024).

For this assay, the target named is T1, Recombinant human farnesyl transferase (FTase) (Homo sapiens, UniProt P49356).
T1 construct: purchased Crelux (Martinsried, Germany)
Description: FTase fluorescence assay (farnesylation of dansyl-GCVLS peptide). Format: biochemical. Particulars: recombinant human FTase 2.5 nM, Dansyl-GCVLS 85 nM, FPP 30 nM, 30° C., 50 minutes. From the text:
T24/83 cell line was purchased from the European Collection of Authenticated Cell Cultures (Salisbury, UK). Recombinant human farnesyl transferase (FTase) and geranylgeranyl transferase type-1 (GGTase) were obtained from Crelux (Martinsried, Germany). Dansyl labelled GCVLS peptide was purchased from Bachem (Torrance, CA), and Dansyl labelled GCVLL peptide was purchased from Bio Synthesis (Lewisville, TX). Farnesyl Pyrophosphate (FPP) and Geranylgeranyl pyrophosphate (GGPP) were purchased from Cayman (Ann Arbor, MI).
Specific biochemical activity of the compounds disclosed herein as FTase inhibitors was determined by measuring the ability of the compounds to block the farnesylation by recombinant FTase of fluorescent (i.e., dansyl-labeled) test substrates derived from the CAAX box of farnesylated proteins, such as the peptide GCVLS.
The IC50 value of the compounds disclosed herein as inhibitors of Ftase and/or GGTase, was determined by measuring the concentration (provided in nM) necessary to achieve inhibition of enzyme activity by 50% (IC50). […] Compounds having a low IC50 value against FTase, for example an IC50 (FTase)<100 nM, such as an IC50 (FTase)<10 nM, are preferred. Compounds having a low IC50 value against FTase and a high IC50 value against GGTase, for example an IC50 (FTase)<100 nM, such as an IC50 (FTase)<10 nM, and an IC50 (GGTase)>100 nM, are potent and selective inhibitors of FTase, and are particularly preferred.
The inhibition activities of the compounds disclosed herein against Ftase and GGTase were measured in the respective fluorescence assays as follows:
For the FTase assay, recombinant human FTase (2.5 nM), Dansyl labelled GCVLS peptide (85 nM), FPP (30 nM) and inhibitor were mixed in assay buffer (50 mM Tris, pH 7.5, 10 mM magnesium chloride, 10 μM zinc chloride, 0.08% CHAPS, 5 mM dithiothreitol) and incubated in a total volume of 20 μL at 30° C. for 50 minutes.
For both the FTase assay and GGTase assay, fluorescence intensity was detected (excitation at 340 nm and emission at 486 nm) using EnVision (PerkinElmer; Waltham, MA), IC50 determinations were performed using a sigmoidal dose-response model with Xlfit software (IDBS, Inc.; Boston, MA), and tipifarnib was used as a positive control. All the assay plates for each assay passed the QC criteria (S/B, Z factor).
Consider `Cn1cncc1C1(O)c2ccc(C#N)c(c2)COc2cccc(c2)-c2cc(=O)[nH]c3ccc1cc23` (centres unmarked) [Compound 54, 3-hydroxy-3-(1-methyl-1H-imidazol-5-yl)-2^2-oxo-2^1,2^2-dihydro-6-oxa-2(4,6)-quinolina-1,4(1,3)-dibenzenacyclohexaphane-4^4-carbonitrile], for which the 50% inhibitory concentration (IC50) (commonly the point on the concentration scale where inhibition reaches its midpoint) was not above 10 nM.

As for `Cn1cncc1[C@]1(N)c2ccc(C#N)c(c2)CCc2cccc(c2)-c2cc(=O)n(C)c3ccc1cc23` (racemic) [(S)-7, (S)-3-amino-2^1-methyl-3-(1-methyl-1H-imidazol-5-yl)-22-oxo-2^1,2^2-dihydro-2(4,6)-quinolina-1,4(1,3)-dibenzenacyclohexaphane-4^4-carbonitrile], the IC50 is more than 100 nM.

On to `Cn1cncc1[C@]1(N)c2ccc(C#N)c(c2)OCc2cccc(c2)-c2cc(C#N)nc3ccc1cc23` (racemic) [(R)-21, (R)-3-amino-3-(1-methyl-1H-imidazol-5-yl)-5-oxa-2(4,6)-quinolina-1,4(1,3)-dibenzenacyclohexaphane-2^2,4^4-dicarbonitrile], for which the IC50 was more than 100 nM.

For `Cn1cncc1[C@@]1(N)c2ccc(C#N)c(c2)COc2cccc(c2)-c2nccc3ccc1cc23` [(S)-86, (S)-3-amino-3-(1-methyl-1H-imidazol-5-yl)-6-oxa-2(1,7)-isoquinolina-1,4(1,3)-dibenzenacyclohexaphane-4^4-carbonitrile], the IC50 was not above 10 nM.

`Cn1cncc1C1(N)c2ccc(C#N)c(c2)COc2cccc(c2)-c2cc(NC3COC3)nc3ccc1cc23` (centres unmarked) [Compound 68, 3-amino-3-(1-methyl-1H-imidazol-5-yl)-2^2-(oxetan-3-ylamino)-6-oxa-2(4,6)-quinolina-1,4(1,3)-dibenzenacyclohexaphane-4^4-carbonitrile]: the IC50 was in the range of 10 to 100 nM.

Turning to `Cn1cncc1[C@]1(O)c2ccc(Cl)c(c2)OCCc2cccc(c2)-c2cc(=O)[nH]c3ccc1cc23` (racemic) [(R)-25, (R)-4^4-chloro-3-hydroxy-3-(1-methyl-1H-imidazol-5-yl)-2^1,2^2-dihydro-5-oxa-2(4,6)-quinolina-1,4(1,3)-dibenzenacycloheptaphan-2^2-one], the IC50 was more than 100 nM.

Take `Cn1cncc1C1(O)c2cccc(c2)CCOc2cccc(c2)-c2cc(=O)n(C)c3ccc1cc23` (centres unmarked) [Compound 63, 3-hydroxy-2^1-methyl-3-(1-methyl-1H-imidazol-5-yl)-2^1,2^2-dihydro-7-oxa-2(4,6)-quinolina-1,4(1,3)-dibenzenacycloheptaphan-2^2-one]: the IC50 fell in the range of 10 to 100 nM.

On to `[2H]C([2H])([2H])n1cncc1[C@@]1(O)c2ccc(C#N)c(c2)COc2cccc(c2)-c2cc(C#N)nc3ccc1cc23` [(S)-078, (S)-3-hydroxy-3-(1-(methyl-d3)-1H-imidazol-5-yl)-6-oxa-2(4,6)-quinolina-1,4(1,3)-dibenzenacyclohexaphane-2^2 4^4-dicarbonitrile], for which the IC50 is not above 10 nM.

Regarding `Cn1cncc1[C@]1(O)c2ccc(Cl)c(c2)OCc2cccc(c2)-c2cc(=O)n(C)c3ccc1cc23` (racemic) [(R)-14, (R)-4^4-chloro-3-hydroxy-2^1-methyl-3-(1-methyl-1H-imidazol-5-yl)-2^1,2^2-dihydro-5-oxa-2(4,6)-quinolina-1,4(1,3)-dibenzenacyclohexaphan-2^2-one], the IC50 was more than 100 nM.

With `Cn1cncc1[C@]1(O)c2ccc(Cl)c(c2)OCCc2cccc(c2)-c2cc(=O)n(C3CC3)c3ccc1cc23` (racemic) [(R)-29, (R)-4^4-chloro-2^1-cyclopropyl-3-hydroxy-3-(1-methyl-1H-imidazol-5-yl)-2^1,2^2-dihydro-5-oxa-2(4,6)-quinolina-1,4(1,3)-dibenzenacycloheptaphan-2^2-one], the IC50 was more than 100 nM.

For the compound `[2H]C([2H])([2H])n1c(=O)cc2c3cc(ccc31)[C@@H](n1cncc1C)c1ccc(Cl)c(c1)COc1cccc-2c1` [(R)-76, (R)-4^4-chloro-2^1-(methyl-d3)-3-(5-methyl-1H-imidazol-1-yl)-2^1,2^2-dihydro-6-oxa-2(4,6)-quinolina-1,4(1,3)-dibenzenacyclohexaphan-2^2-one], the IC50 lay within 10 to 100 nM.

On to `Cn1cncc1C1(O)c2ccc(C#N)c(c2)COc2cccc(c2)-c2nccc3ccc1cc23` (centres unmarked) [Compound 85, 3-hydroxy-3-(1-methyl-1H-imidazol-5-yl)-6-oxa-2(1,7)-isoquinolina-1,4(1,3)-dibenzenacyclohexaphane-4^4-carbonitrile], for which the IC50 lay in the range of 10 to 100 nM.

Turning to `Cn1cncc1[C@]1(N)c2ccc(C#N)c(c2)COc2cccc(c2)-c2cc(=O)n(C3CC3)c3ccc1cc23` (racemic) [(R)-57, (R)-3-amino-21-cyclopropyl-3-(1-methyl-1H-imidazol-5-yl)-2^2-oxo-2^1,2^2-dihydro-6-oxa-2(4,6)-quinolina-1,4(1,3)-dibenzenacyclohexaphane-4^4-carbonitrile], the IC50 is more than 100 nM.

Take `[2H]C([2H])([2H])n1c(=O)cc2c3cc(ccc31)[C@@H](n1cnc(C)c1)c1ccc(Cl)c(c1)COc1cccc-2c1` [(R)-77, (R)-4^4-chloro-2^1-(methyl-d3)-3-(4-methyl-1H-imidazol-1-yl)-2^1,2^2-dihydro-6-oxa-2(4,6)-quinolina-1,4(1,3)-dibenzenacyclohexaphan-2^2-one]: the IC50 fell in the range of 10 to 100 nM.

As for `Cn1cncc1C1(N)c2ccc(C#N)c(c2)COc2cccc(c2)-c2cc(N3CCNCC3)nc3ccc1cc23` (centres unmarked) [Compound 67, 3-amino-3-(1-methyl-1H-imidazol-5-yl)-2^2-(piperazin-1-yl)-6-oxa-2(4,6)-quinolina-1,4(1,3)-dibenzenacyclohexaphane-4^4-carbonitrile], the IC50 lay in the range of 10 to 100 nM.

For the compound `[2H]C([2H])([2H])n1c(=O)cc2c3cc(ccc31)C(O)(c1nncn1C)c1ccc(Cl)c(c1)OCCc1cccc-2c1` (centres unmarked) [Compound 32, 4^4-chloro-3-hydroxy-2^1-(methyl-d3)-3-(4-methyl-4H-1,2,4-triazol-3-yl)-2^1,2^2-dihydro-5-oxa-2(4,6)-quinolina-1,4(1,3)-dibenzenacycloheptaphan-2^2-one], the concentration for half-maximal inhibition (IC50) was in the range of 10 to 100 nM.

Take `[2H]C([2H])([2H])n1c(=O)cc2c3cc(ccc31)[C@@H](n1ncnc1C)c1ccc(Cl)c(c1)COc1cccc-2c1` [(R)-079, (R)-4^4-chloro-2^1-(methyl-d3)-3-(5-methyl-1H-1,2,4-triazol-1-yl)-2^1,2^2-dihydro-6-oxa-2(4,6)-quinolina-1,4(1,3)-dibenzenacyclohexaphan-2^2-one]: the IC50 was in the range of 10 to 100 nM.

In the case of `Cn1cncc1[C@]1(N)c2ccc(Cl)c(c2)OCCc2cccc(c2)-c2cc(=O)n(C3CC3)c3ccc1cc23` (racemic) [(R)-30, (R)-3-amino-4^4-chloro-2^1-cyclopropyl-3-(1-methyl-1H-imidazol-5-yl)-2^1,2^2-dihydro-5-oxa-2(4,6)-quinolina-1,4(1,3)-dibenzenacycloheptaphan-2^2-one], the IC50 is more than 100 nM.

For `COc1cc2c3cc(ccc3n1)C(O)(c1cncn1C)c1cccc(c1)OCc1cccc-2c1` (centres unmarked) [Compound 10, 2^2-methoxy-3-(1-methyl-1H-imidazol-5-yl)-5-oxa-2(4,6)-quinolina-1,4(1,3)-dibenzenacyclohexaphan-3-ol], the IC50 was more than 100 nM.

Take `Cn1cncc1[C@]1(O)c2ccc(C#N)c(c2)OCCc2cccc(c2)-c2cc(=O)n(C)c3ccc1cc23` (racemic) [(R)-36, (R)-3-hydroxy-2^1-methyl-3-(1-methyl-1H-imidazol-5-yl)-2^2-oxo-2^1,2^2-dihydro-5-oxa-2(4,6)-quinolina-1,4(1,3)-dibenzenacycloheptaphane-4^4-carbonitrile]: the IC50 was more than 100 nM.

Consider `Cn1cncc1C1(O)c2ccc(C#N)c(c2)OCc2cccc(c2)-c2cc(=O)[nH]c3ccc1cc23` (centres unmarked) [Compound 17, 3-hydroxy-3-(1-methyl-1H-imidazol-5-yl)-2^2-oxo-2^1,2^2-dihydro-5-oxa-2(4,6)-quinolina-1,4(1,3)-dibenzenacyclohexaphane-4^4-carbonitrile], for which the IC50 is not above 10 nM.

For `[2H]C([2H])([2H])n1cncc1[C@]1(O)c2ccc(C#N)c(c2)COc2cccc(c2)-c2cc(C#N)nc3ccc1cc23` [(R)-078, (R)-3-hydroxy-3-(1-(methyl-d3)-1H-imidazol-5-yl)-6-oxa-2(4,6)-quinolina-1,4(1,3)-dibenzenacyclohexaphane-2^2 4^4-dicarbonitrile], the IC50 was 10 to 100 nM.

Take `Cn1cnnc1[C@]1(N)c2ccc(Cl)c(c2)COc2cccc(c2)-c2cc(=O)n(C)c3ccc1cc23` (racemic) [(R)-51, (R)-3-amino-4^4-chloro-2^1-methyl-3-(4-methyl-4H-1,2,4-triazol-3-yl)-2^1,2^2-dihydro-6-oxa-2(4,6)-quinolina-1,4(1,3)-dibenzenacyclohexaphan-2^2-one]: the IC50 is more than 100 nM.
